The text below walks through data of PubChem BioAssay AID328 (DTP/NCI, 2004).

For this assay, the system named is BDF1 mice, P388 leukemia ip, median survival T/C. Kind of assay: NCI In Vivo Anticancer Drug Screen. Data for tumor model P388 Leukemia (intraperitoneal) in B6D2F1 (BDF1) mice. Particulars: endpoint: median survival time, higher = longer survival. A digest of the protocol:
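In tumour-bearing mice, survival after compound treatment is set against the vehicle group and given as a quotient.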

Where [1] appears, read: dose: 50.0 mg/kg/injection, schedule: Q01DX009 (ip), vehicle: saline.
The mark [2] stands for this setting: dose: 100.0 mg/kg/injection, schedule: Q01DX009 (ip), vehicle: saline.
The mark [3] stands for this setting: dose: 100.0 mg/kg/injection, schedule: Q04DX003 (ip), vehicle: saline.
[4] abbreviates: dose: 200.0 mg/kg/injection, schedule: Q01DX009 (ip), vehicle: saline.
The mark [5] stands for this setting: dose: 200.0 mg/kg/injection, schedule: Q04DX003 (ip), vehicle: saline.
Setting [6] is: dose: 25.0 mg/kg/injection, schedule: Q01DX009 (ip), vehicle: Klucel (hydroxypropylcellulose) (HPC).
[7] abbreviates: dose: 50.0 mg/kg/injection, schedule: Q01DX009 (ip), vehicle: Klucel (hydroxypropylcellulose) (HPC).
Where [8] appears, read: dose: 100.0 mg/kg/injection, schedule: Q01DX009 (ip), vehicle: Klucel (hydroxypropylcellulose) (HPC).
Where [9] appears, read: dose: 100.0 mg/kg/injection, schedule: Q04DX003 (ip), vehicle: Klucel (hydroxypropylcellulose) (HPC).
The mark [10] stands for this setting: dose: 25.0 mg/kg/injection, schedule: Q01DX009 (ip), vehicle: saline.
[11] abbreviates: dose: 25.0 mg/kg/injection, schedule: Q04DX003 (ip), vehicle: saline.
Where [12] appears, read: dose: 50.0 mg/kg/injection, schedule: Q04DX003 (ip), vehicle: saline.
Setting [13] is: dose: 200.0 mg/kg/injection, schedule: Q01DX009 (ip), vehicle: Klucel (hydroxypropylcellulose) (HPC).
[14] abbreviates: dose: 100.0 mg/kg/injection, schedule: Q04DX003 (ip), vehicle: saline with Tween-80.
Where [15] appears, read: dose: 400.0 mg/kg/injection, schedule: Q01DX009 (ip), vehicle: saline.
Setting [16] is: dose: 400.0 mg/kg/injection, schedule: Q04DX003 (ip), vehicle: saline.
Where [17] appears, read: dose: 50.0 mg/kg/injection, schedule: Q01DX005 (ip), vehicle: saline with Tween-80.
The mark [18] stands for this setting: dose: 400.0 mg/kg/injection, schedule: Q01DX009 (ip), vehicle: Klucel (hydroxypropylcellulose) (HPC).

“And” between values parts separate entries of the source, which are not always exact repeats. Equal entries are not always repeated. Inconclusive results and toxic doses are left out.

As to `N#CCCNCCC#N`, the T/C under setting [1] is 91 % of control; the T/C under setting [2] was 108 % of control; the T/C under setting [3] is 105 % of control; the T/C under setting [4] is 104 % of control; the T/C under setting [5] is 105 % of control.

As to `CCn1nnc2c(N(C)C)nc(N)nc21`, the T/C is, setting by setting: under setting [6], 92 % of control; under setting [7], 92 % of control; (dose: 50.0 mg/kg/injection, schedule: Q04DX003 (ip), vehicle: Klucel (hydroxypropylcellulose) (HPC)) 100 % of control; under setting [8], 92 % of control; under setting [9], 104 % of control.

As for `O[C@H](CN1CC1)[C@@H](O)CN1CC1`, the T/C is 235 % of control (dose: 62.5 micrograms/kg/injection, schedule: Q01DX010 (ip), vehicle: saline); 230 % of control and 186 % of control (dose: 125.0 micrograms/kg/injection, schedule: Q01DX010 (ip), vehicle: saline); 227 % of control and 187 % of control (dose: 250.0 micrograms/kg/injection, schedule: Q01DX010 (ip), vehicle: saline); 116 % of control and 122 % of control (dose: 500.0 micrograms/kg/injection, schedule: Q01DX010 (ip), vehicle: saline).

In the case of `CCN(CC)CCOC(=O)c1ccccc1Nc1cccc(C)c1`, the T/C by setting is: under setting [10], 104 % of control; under setting [11], 109 % of control; under setting [1], 108 % of control; under setting [12], 100 % of control; (dose: 87.0 mg/kg/injection, schedule: Q04DX003 (ip), vehicle: saline) 119 % of control; under setting [3], 109 % of control. In addition, under “dose: 175.0 mg/kg/injection, schedule: Q04DX003 (ip), vehicle: saline”, the T/C was 107 % of control.

Regarding `Clc1ccc(NC2=NCCN=C(Nc3ccc(Cl)c(Cl)c3)SS2)cc1Cl`, the T/C was 100 % of control under setting [7], 92 % of control under setting [8] and 88 % of control under setting [13].

In the case of `CC(C)=CC(=O)CC(O)(C(F)(F)F)C(F)(F)Cl` (configuration not stated), the T/C by setting is: (dose: 25.0 mg/kg/injection, schedule: Q04DX003 (ip), vehicle: saline with Tween-80) 100 % of control; (dose: 50.0 mg/kg/injection, schedule: Q04DX003 (ip), vehicle: saline with Tween-80) 95 % of control; under setting [14], 109 % of control.

Take `CCN1CCCC(Nc2cc(C)nc(Nc3nc4cc(Cl)c(Cl)cc4[nH]3)n2)C1` (configuration not stated): the T/C reads like this: (dose: 1.56 mg/kg/injection, schedule: Q01DX009 (ip), vehicle: Klucel (hydroxypropylcellulose) (HPC)) 100 % of control; (dose: 3.12 mg/kg/injection, schedule: Q01DX009 (ip), vehicle: Klucel (hydroxypropylcellulose) (HPC)) 90 % of control; (dose: 6.25 mg/kg/injection, schedule: Q01DX009 (ip), vehicle: Klucel (hydroxypropylcellulose) (HPC)) 100 % of control.

On to `CSc1c(C)[nH]c2c(C)cccc12`, for which the T/C is 100 % of control (dose: 50.0 mg/kg/injection, schedule: Q04DX002 (ip), vehicle: saline with Tween-80); 100 % of control (dose: 100.0 mg/kg/injection, schedule: Q04DX002 (ip), vehicle: saline with Tween-80); 105 % of control (dose: 200.0 mg/kg/injection, schedule: Q04DX002 (ip), vehicle: saline with Tween-80).

Turning to `CN=C(N)c1ccc(NC(=O)c2ccc(C(=O)Nc3ccc(C(N)=NC)cc3)cc2)cc1`, the T/C reads like this: (dose: 15.0 mg/kg/injection, schedule: Q01DX010 (ip), vehicle: saline) 150 % of control and 160 % of control; (dose: 30.0 mg/kg/injection, schedule: Q01DX010 (ip), vehicle: saline) 160 % of control and 175 % of control; (dose: 60.0 mg/kg/injection, schedule: Q01DX010 (ip), vehicle: saline) 175 % of control and 180 % of control; (dose: 120.0 mg/kg/injection, schedule: Q01DX010 (ip), vehicle: saline) 160 % of control.

Take `Cn1c(O)c(C=N)c(=O)[nH]c1=O`: the T/C is 100 % of control under setting [2]; 100 % of control under setting [3]; 92 % of control under setting [5]; 109 % of control under setting [15]; 107 % of control under setting [16].

In the case of `CN(C)CCCNc1nc(NCCCN(C)C)c2nc(-c3ccccc3)c(-c3ccccc3)nc2n1`, the T/C under setting [17] is 104 % of control.

As for `Cc1ccc(S(=O)(=O)NCN2C(=O)c3ccccc3C2=O)cc1`, the T/C reads like this: (dose: 12.5 mg/kg/injection, schedule: Q01DX009 (ip), vehicle: Klucel (hydroxypropylcellulose) (HPC)) 100 % of control; under setting [6], 100 % of control; (dose: 25.0 mg/kg/injection, schedule: Q01DX009 (ip), vehicle: saline with Tween-80) 86 % of control; under setting [7], 105 % of control; under setting [2], 91 % of control.

Turning to `C=CCOP(OCC=C)OCC=C`, the T/C runs as follows: under setting [10], 90 % of control; under setting [11], 95 % of control; under setting [1], 90 % of control; under setting [2], 104 % of control; under setting [3], 100 % of control.

As for `COc1cc(/C=C(/C)[N+](=O)[O-])ccc1O`, the T/C is 118 % of control (dose: 12.5 mg/kg/injection, schedule: Q01DX009 (ip), vehicle: carboxymethylcellulose (CMC)); 121 % of control (dose: 18.75 mg/kg/injection, schedule: Q01DX009 (ip), vehicle: Klucel (hydroxypropylcellulose) (HPC)); 103 % of control and 112 % of control under setting [6]; 116 % of control under setting [7]; 122 % of control under setting [1]; 109 % of control under setting [12]. In addition, the T/C is, setting by setting: under setting [8], 114 % of control; under setting [2], 92 % of control; under setting [3], 113 % of control; under setting [13], 114 % of control; under setting [4], 122 % of control; under setting [5], 118 % of control.

On to `Cc1ccc(C2NC(=S)N3C(c4ccc(C)cc4)NC(=S)N23)cc1` (configuration not stated), for which the T/C is 98 % of control under setting [7]; 111 % of control under setting [8]; 111 % of control under setting [13]; 154 % of control under setting [18]; 112 % of control under setting [15]; 120 % of control (dose: 600.0 mg/kg/injection, schedule: Q01DX009 (ip), vehicle: saline).

Consider `Nc1c(Br)cc(Br)c2ccccc12`, for which the T/C by setting is: under setting [8], 95 % of control; under setting [13], 113 % of control; under setting [18], 109 % of control.

Regarding `CC(=O)C1C(=O)C(=O)OC1C` (configuration not stated), the T/C was 109 % of control under setting [7]; 95 % of control under setting [8]; 113 % of control under setting [14]; 90 % of control under setting [13]; 104 % of control (dose: 200.0 mg/kg/injection, schedule: Q04DX003 (ip), vehicle: saline with Tween-80).

With `O=C(Cn1cc(F)c(=O)[nH]c1=O)c1cccs1`, the T/C runs as follows: under setting [2], 100 % of control; under setting [3], 95 % of control; under setting [4], 100 % of control; under setting [5], 90 % of control; under setting [15], 95 % of control; under setting [16], 90 % of control.

For the molecule `N#Cc1ccc(OC(=O)c2ccc(N=C(N)N)cc2)cc1`, the T/C runs as follows: under setting [1], 100 % of control; under setting [2], 104 % of control; under setting [3], 104 % of control; under setting [4], 90 % of control; under setting [5], 113 % of control.

Consider `CC(C)(Cl)CNC(=O)c1ccc([N+](=O)[O-])cc1`, for which the T/C was 91 % of control under setting [9]; 104 % of control (dose: 200.0 mg/kg/injection, schedule: Q04DX003 (ip), vehicle: Klucel (hydroxypropylcellulose) (HPC)); 100 % of control (dose: 400.0 mg/kg/injection, schedule: Q04DX003 (ip), vehicle: Klucel (hydroxypropylcellulose) (HPC)).

Turning to `CC(=O)N1C(=O)NC(=O)C1(CSCc1ccccc1)CSCc1ccccc1`, the T/C was 98 % of control under setting [11]; 98 % of control under setting [12]; 116 % of control under setting [3]; 107 % of control under setting [5]; 99 % of control under setting [16].

Turning to `CCN(CC)CCCC(C)Nc1ncnc(N)c1[N+](=O)[O-]` (configuration not stated), the T/C under setting [10] is 120 % of control; the T/C under setting [11] is 90 % of control; the T/C under setting [1] is 120 % of control; the T/C under setting [12] was 95 % of control; the T/C under setting [2] is 90 % of control; the T/C under setting [3] is 100 % of control.

As for `CC1(C)O[C@]2(C)CC[C@@H]1C[C@H]2O`, the T/C was 100 % of control under setting [17]; 98 % of control (dose: 100.0 mg/kg/injection, schedule: Q01DX005 (ip), vehicle: saline with Tween-80); 95 % of control (dose: 200.0 mg/kg/injection, schedule: Q01DX005 (ip), vehicle: saline with Tween-80).
